Laboratory results published in PMC12040169 (PLOS Biology, 2025).

Assay: in vitro
Details: human, hela cells, % viability

COCCNC(=O)c1ccc(-c2ccc3c(c2)OCO3)nc1N(C)C [CBK106050]
viability at 28.5 h, 10 µM: 101%

COCCNC(=O)c1ccc(-c2ccccc2OC)nc1N(C)C [CBK106052]
viability at 28.5 h, 10 µM: 92%

COCCNC(=O)c1ccc(-c2cc(C(C)C)ccc2OC)nc1N(C)C [CBK106061]
viability at 28.5 h, 10 µM: 103%

CN(C)CCN(C)C(=O)c1ccc(-c2cc(C(F)(F)F)cc(C(F)(F)F)c2)nc1N(C)C [CBK106069]
viability at 28.5 h, 10 µM: 97%

COc1ccccc1-c1ccc(C(=O)N(C)CCN(C)C)c(N(C)C)n1 [CBK106075]
viability at 28.5 h, 10 µM: 88.5%

COc1cc(-c2ccc(C(=O)N(C)CCN(C)C)c(N(C)C)n2)cc(OC)c1OC [CBK106076]
viability at 28.5 h, 10 µM: 109%

CN(C)CCN(C)C(=O)c1ccc(-c2ccco2)nc1N(C)C [CBK106078]
viability at 28.5 h, 10 µM: 84.1%

CN(C)CCN(C)C(=O)c1ccc(-c2cccc(Cl)c2Cl)nc1N(C)C [CBK106082]
viability at 28.5 h, 10 µM: 94.1%

Cc1ccccc1-c1ccc(C(=O)N(C)CCN(C)C)c(N(C)C)n1 [CBK106090]
viability at 28.5 h, 10 µM: 96%

CN(C)c1nc(-c2cc(C(F)(F)F)cc(C(F)(F)F)c2)ccc1C(=O)NCc1ccco1 [CBK106094]
viability at 28.5 h, 10 µM: 89.5%

CN1CCN(C(=O)c2ccc(-c3ccco3)nc2N(C)C)CC1 [CBK106121]
viability at 28.5 h, 10 µM: 94.4%

COc1ccc(C(C)C)cc1-c1ccc(C(=O)N2CCN(C)CC2)c(N(C)C)n1 [CBK106130]
viability at 28.5 h, 10 µM: 88%

CN1CCN(C(=O)c2ccc(-c3cccc(C(F)(F)F)c3)nc2N2CCOCC2)CC1 [CBK106194]
viability at 28.5 h, 10 µM: 94%

Cc1csc(-c2ccc(C(=O)N3CCN(C)CC3)c(N3CCOCC3)n2)c1 [CBK106195]
viability at 28.5 h, 10 µM: 90.8%

Cc1ccc(C(=O)N2CCN(C)CC2)c(N2CCOCC2)n1 [CBK106199]
viability at 28.5 h, 10 µM: 100%

COc1ccc2[nH]cc(CCNC(=O)c3ccc(C)nc3N3CCOCC3)c2c1 [CBK106203]
viability at 28.5 h, 10 µM: 108%

CNC(=O)c1ccc(-c2ccco2)nc1N1CCOCC1 [CBK106212]
viability at 28.5 h, 10 µM: 108%

CNC(=O)c1ccc(-c2cccc(Cl)c2Cl)nc1N1CCOCC1 [CBK106215]
viability at 28.5 h, 10 µM: 109%

Cc1ccc(C(=O)Nc2cc(C)nn2C)c(N2CCOCC2)n1 [CBK106221]
viability at 28.5 h, 10 µM: 104%

COc1cccc(NC(=O)c2ccc(-c3ccsc3)nc2NCC2CC2)c1 [CBK106227]
viability at 28.5 h, 10 µM: 90.5%

COCCNC(=O)c1ccc(-c2ccccc2)nc1NCC1CC1 [CBK106242]
viability at 28.5 h, 10 µM: 92%

COCCNC(=O)c1ccc(-c2ccccc2OC)nc1NCC1CC1 [CBK106246]
viability at 28.5 h, 10 µM: 103%

COCCNC(=O)c1ccc(-c2cc(C)cs2)nc1NCC1CC1 [CBK106259]
viability at 28.5 h, 10 µM: 106%

COc1ccccc1-c1ccc(C(=O)N(C)CCN(C)C)c(NCC2CC2)n1 [CBK106269]
viability at 28.5 h, 10 µM: 96.3%

CNC(=O)c1ccc(-c2ccc(C(C)=O)s2)nc1NCC1CC1 [CBK106307]
viability at 28.5 h, 10 µM: 95.3%

CC(=O)Nc1nc(-c2ccccc2C)ccc1C(=O)NC1CCCCC1 [CBK106327]
viability at 28.5 h, 10 µM: 99%

CC(=O)Nc1nc(-c2ccccc2C)ccc1C(=O)N(C)C [CBK106328]
viability at 28.5 h, 10 µM: 94.6%

CC(=O)N(C)c1nc(-c2ccccc2)ccc1C(=O)NCc1ccco1 [CBK106334]
viability at 28.5 h, 10 µM: 99.3%

CC(=O)N(C)c1nc(-c2ccccc2)ccc1C(=O)Nc1ccc2c(c1)OCO2 [CBK106342]
viability at 28.5 h, 10 µM: 96.8%

CC(=O)N(C)c1nc(-c2ccco2)ccc1C(=O)Nc1cc(C)nn1C [CBK106356]
viability at 28.5 h, 10 µM: 89.3%

CC(=O)N(C)c1nc(-c2ccccc2C)ccc1C(=O)Nc1cc(C)nn1C [CBK106357]
viability at 28.5 h, 10 µM: 88.6%

CN(C)c1ncc(-c2ccc(O)cc2)cc1C(=O)NCc1ccc(F)cc1 [CBK106396]
viability at 28.5 h, 10 µM: 91.5%

COCCNC(=O)c1cc(-c2ccc(Cl)cc2)cnc1NS(C)(=O)=O [CBK106421]
viability at 28.5 h, 10 µM: 94.4%

COCCNC(=O)c1cc(-c2ccccc2C)cnc1NS(C)(=O)=O [CBK106422]
viability at 28.5 h, 10 µM: 82.9%

COc1cccc(-c2cnc(N(C)S(C)(=O)=O)c(C(=O)NC3CCCCC3)c2)c1 [CBK106446]
viability at 28.5 h, 10 µM: 109%

CN(c1ncc(-c2cc3ccccc3o2)cc1C(=O)Nc1ccc2c(c1)OCO2)S(C)(=O)=O [CBK106464]
viability at 28.5 h, 10 µM: 101%

CN(c1ncc(-c2cc3ccccc3o2)cc1C(=O)NCC(F)(F)F)S(C)(=O)=O [CBK106479]
viability at 28.5 h, 10 µM: 114%

O=C1CCC(=O)N1CCn1c(=O)n(S(=O)(=O)c2ccc(-c3ccccc3)cc2)c2ccccc21 [CBK106494]
viability at 28.5 h, 10 µM: 112%

O=C1CCC(=O)N1CCn1c(=O)n(C(=O)CCC2CCCC2)c2ccccc21 [CBK106495]
viability at 28.5 h, 10 µM: 96.8%

O=C1CCC(=O)N1CCn1c(=O)n(C(=O)CCCOc2ccc(Cl)cc2)c2ccccc21 [CBK106496]
viability at 28.5 h, 10 µM: 93.4%

COc1ccccc1C(=O)Cn1c(=O)n(S(=O)(=O)c2ccccc2)c2ccccc21 [CBK106497]
viability at 28.5 h, 10 µM: 90.2%

CCN(CC)c1ccc(C(=O)Cn2c(=O)n(C(=O)c3cccc(S(C)(=O)=O)c3)c3ccccc32)cc1 [CBK106500]
viability at 28.5 h, 10 µM: 94.2%

CCCS(=O)(=O)n1c(=O)n(CC(=O)c2ccc(N(CC)CC)cc2)c2ccccc21 [CBK106504]
viability at 28.5 h, 10 µM: 105%

CN(C)c1cccc2c(S(=O)(=O)n3c(=O)n(CCc4c[nH]c5ccccc45)c4ccccc43)cccc12 [CBK106511]
viability at 28.5 h, 10 µM: 85.8%

CC(C)CCCC(=O)n1c(=O)n(CCc2c[nH]c3ccccc23)c2ccccc21 [CBK106513]
viability at 28.5 h, 10 µM: 89.2%

COc1ccc(CCCC(=O)n2c(=O)n(CCc3c[nH]c4ccccc34)c3ccccc32)cc1 [CBK106514]
viability at 28.5 h, 10 µM: 91.3%

CCCS(=O)(=O)n1c(=O)n(CCc2c[nH]c3ccccc23)c2ccccc21 [CBK106515]
viability at 28.5 h, 10 µM: 87.8%

O=c1n(CC2CCCCC2)c2ccccc2n1S(=O)(=O)c1cccc(Cl)c1 [CBK106521]
viability at 28.5 h, 10 µM: 91.4%

O=c1n(CC2CCCCC2)c2ccccc2n1S(=O)(=O)CCc1cccc2ccccc12 [CBK106525]
viability at 28.5 h, 10 µM: 101%

CC(C)S(=O)(=O)n1c(=O)n(Cc2ccc(S(C)(=O)=O)cc2)c2ccccc21 [CBK106529]
viability at 28.5 h, 10 µM: 90.3%

Cc1noc(C)c1S(=O)(=O)n1c(=O)n(Cc2ccc(S(C)(=O)=O)cc2)c2ccccc21 [CBK106536]
viability at 28.5 h, 10 µM: 93.4%

COc1ccc(Cn2c(=O)n(C(=O)c3cccc(S(C)(=O)=O)c3)c3ccccc32)cc1 [CBK106547]
viability at 28.5 h, 10 µM: 86.5%

COc1ccc(Cn2c(=O)n(S(=O)(=O)c3ccc(-c4cc(C(F)(F)F)n(C)n4)s3)c3ccccc32)cc1 [CBK106552]
viability at 28.5 h, 10 µM: 97.7%

CCCS(=O)(=O)n1c(=O)n(Cc2ccc(OC)cc2)c2ccccc21 [CBK106553]
viability at 28.5 h, 10 µM: 99.7%

CC(C)CCCC(=O)n1ccn(CCCOc2ccccc2)c1=O [CBK106561]
viability at 28.5 h, 10 µM: 101%

Cc1ccccc1-n1ccn(S(=O)(=O)C(C)C)c1=O [CBK106566]
viability at 28.5 h, 10 µM: 89.7%

CC(C)S(=O)(=O)n1ccn(-c2cccc(C(F)(F)F)c2)c1=O [CBK106577]
viability at 28.5 h, 10 µM: 88%

CN(C)c1cccc2c(S(=O)(=O)n3ccn(-c4cccc(C(F)(F)F)c4)c3=O)cccc12 [CBK106578]
viability at 28.5 h, 10 µM: 109%

O=c1n(-c2cccc(C(F)(F)F)c2)ccn1S(=O)(=O)c1ccc(Cl)c(Cl)c1 [CBK106579]
viability at 28.5 h, 10 µM: 96.7%

COC(=O)CCCC(=O)n1ccn(-c2cccc(C(F)(F)F)c2)c1=O [CBK106580]
viability at 28.5 h, 10 µM: 87.6%
